Results as given in US20080234384A1, “BIARYL AND BIHETEROARYL COMPOUNDS USEFUL IN TREATING IRON DISORDERS” (XENON PHARMACEUTICALS INC., priority 2007, published 2008).
pIC50: −log10 of the molar value. Counter-ions that a name gives are not always drawn.

Each compound was assayed against T1, DMT1 (Homo sapiens, UniProt P49281) (assay: DMT1 Activity Assay (In Vitro Assay)). Settings: read-out: IC50 Activity Level.
T1 sequence (P49281 1-568): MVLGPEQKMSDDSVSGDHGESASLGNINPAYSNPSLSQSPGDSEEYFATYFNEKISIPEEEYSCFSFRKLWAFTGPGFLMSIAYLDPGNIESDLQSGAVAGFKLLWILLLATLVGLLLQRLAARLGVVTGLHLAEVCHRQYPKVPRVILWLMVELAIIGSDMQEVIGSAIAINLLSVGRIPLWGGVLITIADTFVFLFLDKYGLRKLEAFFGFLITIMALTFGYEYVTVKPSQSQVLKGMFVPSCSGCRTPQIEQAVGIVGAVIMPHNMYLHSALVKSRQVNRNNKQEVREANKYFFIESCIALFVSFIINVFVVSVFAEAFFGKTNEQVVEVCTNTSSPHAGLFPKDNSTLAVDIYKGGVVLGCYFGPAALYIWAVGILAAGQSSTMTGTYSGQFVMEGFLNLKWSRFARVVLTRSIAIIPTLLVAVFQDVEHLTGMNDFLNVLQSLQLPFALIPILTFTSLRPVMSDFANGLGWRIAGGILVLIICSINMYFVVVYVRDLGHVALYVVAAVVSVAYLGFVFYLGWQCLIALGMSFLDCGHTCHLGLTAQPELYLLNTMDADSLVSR
Format: cell-based
Text: In particular, identification of the compounds of the invention ability to modulate, preferably to inhibit, DMT1 activity, can be assessed using a variety of in vitro and in vivo assays, for measuring uptake of reduced iron (Fe^2+). One such protocol involves the screening of chemical agents for ability to modulate the activity of DMT1 thereby identifying it as a modulating agent. The in vitro activity of DMT1 can be measured in cell based assays by either directly measuring iron flux (using a radioactively labelled iron ^55Fe) or by measuring the fluorescence of a cell permeable iron fluorophore such as calcein. Stable cell lines overexpressing DMT1 are exposed to ^55Fe or loaded with calcein and then compound is applied. […] Alternatively, in another format electrophysiological techniques can be used to measure the current or iron or other metals traversing the cell membrane with DMT1 in a Xenopus oocyte or other cell based system (Gunshin et al., Nature, 1997, 31; 388(6641):482-8).
This example discloses various in vitro assay for testing and profiling test agents against DMT1 stably expressed in cells of either an endogenous or recombinant origin. These assays can use stable cell lines overexpressing DMT1 or intestinal cells and intestinal tissue expressing endogenous DMT1. DMT1 function could also be assessed in other cell types that express DMT1. Of greatest relevance would be the erythrocytes (e.g. K562 cells) or hepatocytes (e.g. […]).
DMT1 function can be assessed in a number of ways, including monitoring fluorescence changes of an iron fluorophore (e.g. calcein), monitoring uptake of radiolabelled iron (55Fe or ^59Fe) (Picard et al., J. Biol. Chem., 2000, 275(46):35738-45 and Wetli et al., Chem. Biol. 2006 September; 13(9):965-72), or by assessing the current or transport of iron and other metals into the cells or tissues using standard electrophysiological techniques (Gunshin et al., Nature, 1997, 388(6641):482-8.).
Variations of these assays involve alterations of incubation times, the iron status of the cells and tissues (which may be modulated by chemical chelators or by harvesting from iron deficient animals), the metal cation detected and the pH of the reaction can generally be made by conventional techniques known to those skilled in the art.

Question: How did the pIC50 turn out when `N=C(N)SCc1ccccc1C(=O)c1ccc(F)cc1CSC(=N)N` [Example 2.26, 2-(6-(amidinothiomethyl)phenyl)carbonyl-1-(amidinothiomethyl)-5-fluorobenzene dihydrobromide] was run?
Answer: 6.00 to 7.00

Question: How did the pIC50 turn out when `N=C(N)SCc1ccccc1Sc1cc(Cl)ccc1CSC(=N)N` [Example 1.11, 2-[2-(2-carbamimidoylsulfanylmethyl-5-chlorophenylsulfanyl)-benzyl]isothiourea dihydrobromide] was run?
Answer: 6.00 to 7.00

Question: How did the pIC50 turn out when `N=C(N)SCc1cc(F)ccc1Sc1cscc1CSC(=N)N` [Example 2.5, (4-{[2-({[amino(imino)methyl]thio}methyl)-4-fluorophenyl]thio}-3-thienyl)methyl imidothiocarbamate dihydrochloride] was run?
Answer: 6.00 to 7.00

Question: `N=C(N)SCc1ccccc1Sc1ccc(N)cc1CSC(=N)N` [Example 1.19, 2-[2-(2-carbamimidoylsulfanylmethylphenylsulfanyl)-5-aminobenzyl]-isothiourea trihydrobromide] was tested. Which pIC50 did it give?
Answer: 6.00 to 7.00

Question: `N=C(N)Cc1ccccc1Sc1ccccc1CC(=N)N` [Example 6.1, 2-(6-(amidinomethyl)phenyl)thio-1-(amidinomethyl)benzene] was tested. Which pIC50 did it give?
Answer: ≤ 6.00

Question: With `N=C(N)SCc1cc(F)ccc1Oc1ccc([N+](=O)[O-])cc1CSC(=N)N` [Example 2.14, 2-[2-({[amino(imino)methyl]thio}methyl)-4-fluorophenoxy]-5-nitrobenzyl imidothiocarbamate dihydrobromide] as the compound, how does the pIC50 read?
Answer: 6.00 to 7.00

Question: With `N=C(N)SCCc1cc(Cl)ccc1Sc1ccc(F)cc1CSC(=N)N` [Example 1.24, 2-[2-(2-carbamimidoylsulfanylethyl-4-chlorophenylsulfanyl)-5-fluorobenzyl]isothiourea dihydrobromide] as the compound, how does the pIC50 read?
Answer: 6.00 to 7.00

Question: `N=C(N)SCc1cc(F)ccc1Sc1cc(Cl)ccc1CSC(=N)N` [Example 1.7, 2-[2-(2-carbamimidoylsulfanylmethyl-5-chloro-phenylsulfanyl)-5-fluoro-benzyl]-isothiourea dihydrobromide] was tested. Which pIC50 did it give?
Answer: 6.00 to 7.00

Question: `N=C(N)SCc1cc(F)ccc1Sc1c(CSC(=N)N)cccc1[N+](=O)[O-]` [Example 1.17, 2-[2-(2-carbamimidoylsulfanylmethyl-4-fluorophenylsulfanyl)-3-nitrobenzyl]isothiourea dihydrobromide] was tested. Which pIC50 did it give?
Answer: ≤ 6.00

Question: With `N=C(N)SCc1ccccc1Sc1ccccc1CSC(=N)N` [Example 1.1, 2-[2-(2-carbamimidoylsulfanylmethylphenylsulfanyl)benzyl]isothiourea dihydrobromide] as the compound, how does the pIC50 read?
Answer: 6.00 to 7.00

Question: How did the pIC50 turn out when `N=C(N)SCc1ccccc1Sc1cc(F)ccc1CSC(=N)N` [Example 1.12, 2-[2-(2-carbamimidoylsulfanylmethyl-5-fluorophenylsulfanyl)benzyl]-isothiourea dihydrobromide] was run?
Answer: 6.00 to 7.00

Question: `N=C(N)SCc1cc(F)ccc1Sc1cc(F)ccc1CSC(=N)N` [Example 1.15, 2-[2-(2-carbamimidoylsulfanylmethyl-5-fluorophenylsulfanyl)-5-fluorobenzyl]isothiourea dihydrobromide] was tested. Which pIC50 did it give?
Answer: 6.00 to 7.00

Question: `N=C(N)SCc1ccccc1C(=O)c1ccc(Cl)cc1CSC(=N)N` [Example 2.29, 2-(6-(amidinothiomethyl)phenyl)carbonyl-1-(amidinothiomethyl)-5-chlorobenzene dihydrobromide] was tested. Which pIC50 did it give?
Answer: ≤ 6.00

Question: With `N=C(N)SCc1ccccc1C(=O)c1cc(Cl)ccc1CSC(=N)N` [Example 2.28, 2-(6-(amidinothiomethyl)phenyl)carbonyl-1-(amidinothiomethyl)-4-chlorobenzene dihydrobromide dihydrobromide] as the compound, how does the pIC50 read?
Answer: ≤ 6.00

Question: `Cc1ccc(Sc2ccccc2CSC(=N)N)c(CSC(=N)N)c1` [Example 1.10, 2-[2-(2-carbamimidoylsulfanylmethyl-4-methylphenylsulfanyl)-benzyl]isothiourea dihydrobromide] was tested. Which pIC50 did it give?
Answer: 6.00 to 7.00

Question: With `N=C(N)SCc1cc(F)ccc1Oc1cc(Cl)ccc1CSC(=N)N` [Example 2.30, 2-[2-({[amino(imino)methyl]thio}methyl)-5-chlorophenoxy]-5-fluorobenzyl imidothiocarbamate dihydrobromide] as the compound, how does the pIC50 read?
Answer: 6.00 to 7.00

Question: How did the pIC50 turn out when `N=C(N)SCc1cc(F)ccc1Sc1sccc1CSC(=N)N` [Example 2.6, (2-{[2-({[amino(imino)methyl]thio}methyl)-4-fluorophenyl]thio}-3-thienyl)methyl imidothiocarbamate dihydrochloride] was run?
Answer: ≤ 6.00

Question: With `COc1ccc(Sc2ccccc2CSC(=N)N)c(CSC(=N)N)c1` [Example 1.4, 2-[2-(2-carbamimidoylsulfanylmethyl-4-methoxyphenylsulfanyl)-benzyl]isothiourea dihydrobromide] as the compound, how does the pIC50 read?
Answer: ≤ 6.00

Question: `N=C(N)SCCc1cc(F)ccc1Sc1ccc(F)cc1CSC(=N)N` [Example 1.23, 2-[2-(2-carbamimidoylsulfanylethyl-4-fluorophenylsulfanyl)-5-fluorobenzyl]isothiourea dihydrobromide] was tested. Which pIC50 did it give?
Answer: 6.00 to 7.00

Question: With `CN(C)S(=O)(=O)c1ccc(Sc2ccc(F)cc2CSC(=N)N)c(CSC(=N)N)c1` [Example 2.2, 2-({2-({[amino(imino)methyl]thio}methyl)-4-[(dimethylamino)sulfonyl]phenyl}thio)-5-fluorobenzyl imidothiocarbamate dihydrobromide] as the compound, how does the pIC50 read?
Answer: 6.00 to 7.00

Question: `N=C(N)SCCc1ccccc1Sc1ccccc1CSC(=N)N` [Example 1.25, 2-[2-(2-carbamimidoylsulfanylethylphenylsulfanyl)benzyl]isothiourea dihydrobromide] was tested. Which pIC50 did it give?
Answer: ≤ 6.00

Question: How did the pIC50 turn out when `N=C(N)SCc1ccccc1Sc1ccc(C(F)(F)F)cc1CSC(=N)N` [Example 1.27, 2-[2-(2-carbamimidoylsulfanylmethylphenylsulfanyl)-5-(trifluoromethyl)benzyl]isothiourea dihydrobromide] was run?
Answer: ≤ 6.00

Question: With `N=C(N)SCc1ccccc1C(=O)c1cc(F)ccc1CSC(=N)N` [Example 2.27, 2-(6-(amidinothiomethyl)phenyl)carbonyl-1-(amidinothiomethyl)-4-fluorobenzene dihydrobromide] as the compound, how does the pIC50 read?
Answer: ≤ 6.00

Question: With `N=C(N)SCc1cc(F)ccc1Sc1ccc(C(F)(F)F)cc1CSC(=N)N` [Example 1.18, 2-[2-(2-carbamimidoylsulfanylmethyl-4-fluorophenylsulfanyl)-5-(trifluoromethyl)benzyl]isothiourea dihydrobromide] as the compound, how does the pIC50 read?
Answer: ≤ 6.00

Question: `N=C(N)SCc1cc(Cl)ccc1Sc1ccc(Cl)cc1CSC(=N)N` [Example 1.22, 2-[2-(2-carbamimidoylsulfanylmethyl-4-chlorophenylsulfanyl)-5-chlorobenzyl]isothiourea dihydrobromide] was tested. Which pIC50 did it give?
Answer: ≤ 6.00

Question: With `N=C(N)SCc1ccccc1Oc1ccccc1CSC(=N)N` [Example 2.15, 2-[2-(2-carbamimidoylsulfanylmethylphenoxy)benzyl]isothiourea dihydrobromide] as the compound, how does the pIC50 read?
Answer: ≤ 6.00

Question: How did the pIC50 turn out when `N=C(N)SCc1cc(F)ccc1Sc1ccc(F)cc1CSC(=N)N` [Example 2, 2-[2-(2-carbamimidoylsulfanylmethyl-4-fluoro-phenylsulfanyl)-5-fluoro-benzyl]-isothiourea dihydrobromide] was run?
Answer: 6.00 to 7.00

Question: With `Cc1cccc(CSC(=N)N)c1Sc1ccccc1CSC(=N)N` [Example 1.8, 2-[2-(2-carbamimidoylsulfanylmethyl-6-methylphenylsulfanyl)-benzyl]isothiourea dihydrobromide] as the compound, how does the pIC50 read?
Answer: ≤ 6.00

Question: With `CS(=O)(=O)c1ccc(Sc2ccc(F)cc2CSC(=N)N)c(CSC(=N)N)c1` [Example 1.30, 2-[2-(2-carbamimidoylsulfanylmethyl-4-fluorophenylsulfanyl)-5-(methylsulfonyl)benzyl]isothiourea dihydrobromide] as the compound, how does the pIC50 read?
Answer: 6.00 to 7.00

Question: `N=C(N)SCc1cc(F)ccc1Oc1ccc(Cl)cc1CSC(=N)N` [Example 2.11, 2-[2-(2-carbamimidoylsulfanylmethyl-4-chlorophenoxy)-5-fluorobenzyl]isothiourea dihydrobromide] was tested. Which pIC50 did it give?
Answer: 6.00 to 7.00
